Test results as given in US20260069610A1, “INHIBITION OF EFFEROCYTOSIS AS A TREATMENT TO PREVENT BONE LOSS AND INCREASE BONE DENSITY AND STRENGTH” (University of Rochester, priority 2022, published 2026).
“Also recorded” adds a separate entry of the source.

How the values were obtained:
[1] = test system: primary human MSCs (hMSCs); test: Efferocytosis assay with pharmacological inhibition of mitochondrial fission, hMSCs; format: cell-based; settings: pre-treated with 25 μM Mdivi for 1 h, end stage PMN for 24 h
Method: (§1) FIGS. 6A, 6B, and 6C show quantification via flow cytometry of viability, end stage neutrophil (PMNs) engulfment, and efficiency (mean fluorescent intensity, MFI) of hMSCs pre-treated with 25 μM Mdivi for 1 h and then given end stage PMN for 24 h. […] N=3, Mean±SD shown on graphs ** p<0.01, *** p<0.001, (1-test or ANOVA).
Primary human MSCs (hMSCs) cells (Lonza) were plated at 2×10^4 per cm^2 in αMEM+10% FBS+1% pen-strep and incubated in 5% O2/5% CO2/37° C. until 80% confluent. Neutrophils were isolated from human peripheral blood via Mono-Poly resolving medium (MP Biomedicals, Inc) according to manufacturer's instructions and incubated in RPMI+10% FBS+10 mM HEPES overnight (18-20 h) at 37° C./5% CO2 as previously described (Casanova-Acebes M, et al. Cell 2013; 153:1025-35). hMSCs were treated with 25 μM Mdivi for 1 h prior to giving 20 nM efluro670 (ThermoFischer) stained end-stage neutrophils in excess (1:10) for 24 h. Cells were then washed 3× with PBS, imaged, and collected for flow cytometry analysis.
All samples were run on a LSRII flow cytometer: 3 lasers, 355 nm, 488 nm, and 633 nm (BD Biosciences). Analysis was performed using FlowJo version 10.8 (Tree Star). Sorting was done on a FACSAria II with 405-, 488-, 532-, and 633 nm lasers (BD Biosciences). All flow cytometry equipment is housed and quality controlled within the URMC Flow Cytometry core.

[2] = test system: primary human MSCs (hMSCs); test: Alkaline phosphatase measurement (osteoblastic differentiation) with inhibition of mitochondrial fission, hMSCs; format: cell-based; settings: for osteoblastic differentiation potential (alkaline phosphatase) of hMSCs: co-treatment with 25 μM Mdivi and PMN
Method: as §1
Cells were washed with PBS 3× and then fixed with formalin for 30 min at room temperature (RT). Following fixation, the cells were washed with water 3× and left to sit for 15 min at RT while preparing alkaline phosphatase (AP) staining. To prepare the AP stain, 5 mg Naphthol AS MX-PO4 was dissolved in 200 μL of N,N-dimethylformamide (DMF), 25 mL 0.2 M Tris pH 8.3, and 25 mL water. Red Violet LB salt (30 mg) was added to solution, vortexed, and filter through 45 μm filter. After incubation with AP stain for 45 min RT, cells were washed with water 3× and then stained with 2.5% silver nitrate for 30 min RT in a ventilated area, then washed with water and air dried. All plates were imaged via light microscopy and quantified for osteoblastic formation using ImageJ software.
Cells that performed efferocytosis in the presence or absence of Mdivi, were washed and stained for AP as described above. Wells were photographed, and images were analyzed using ImageJ for staining intensity.

ST2 cells [3] = test: Initial toxicity studies in ST2 cells; format: cell-based, murine; settings: ST2 cells (stromal cell line)
primary human MSCs = test: Initial toxicity studies in primary human MSCs; format: cell-based
ST2 cells [4] = test: In vitro efferocytosis assay, ST2 cells with end stage neutrophils, flow cytometry
Method: ST2 cells, a bone marrow-derived mesenchymal stromal cell line, were plated at 2×10^4 per cm^2 in αMEM without ascorbic acid (Gibco)+10% FBS+1% pen-strep and incubated in 21% oxygen at 37° C. until 80% confluency. […] End-stage neutrophils were washed with PBS and fluorescently labeled with 20 nM efluro670 (ThermoFischer) according to manufacturer's instructions. Targets (neutrophils or apoptotic lymphocytes) were given in excess (1 MSC: 10 Target) to plated MSCs and incubated for up to 24 h. Cells were then washed 3× with PBS, imaged, and collected for flow cytometry analysis.

macrophages = settings: targeting via clodronate; cited from earlier work

With COc1cc(-n2c(S)nc3ccccc3c2=O)c(Cl)cc1Cl [Mdivi] the “efficiency (MFI) of efferocytosis by hMSCs” value [1] was “decreased”, the “overall rate of efferocytosis (end stage PMN engulfment) by hMSCs” value [1] was “decreased; also recorded: decreases efferocytic activity in MSCs” and the “viability of hMSCs” value [1] was “without impacting their viability”. For the same compound, the “overall rate of efferocytosis (end stage PMN engulfment) by hMSCs” value ([1]; listed as MDivi) was “decreases human MSC (hMSC) efferocytosis”, the “osteoblastic differentiation (alkaline phosphatase) of hMSCs” value ([2]; Mdivi treatment in the absence of PMN) was “trending increase in osteoblastic differentiation; also recorded: increases osteoblastic differentiation independent of efferocytic activity” and the “osteoblastic differentiation potential (alkaline phosphatase) of hMSCs” value [2] was “rescued the osteoblastic differentiation potential; also recorded: rescues the defect in osteoblastic differentiation”. The “osteoblastic differentiation potential (alkaline phosphatase) of hMSCs” value ([2]; listed as MDivi) was “restores MSC osteoblastic differentiation”.
With CN1CCN(Cc2ccc(Nc3ncc(Cl)c(Nc4ccccc4S(=O)(=O)N(C)C)n3)cc2)CC1 [TP0903] the toxicity (ST2 cells [3]) was “low toxicity”, the toxicity (primary human MSCs) was “low toxicity” and the “efferocytosis by ST2 cells” value (ST2 cells [4]; 3 and 24 hrs, pre treated with 100 nM TP0903 for 1 hr, excess (5 PMN: 1 MSC) end stage hPMNs) was “blocks efferocytosis for a short duration”. The “neutrophil uptake by MSCs” value (ST2 cells [4]; 3 hours after neutrophil addition, flow cytometry) was “significantly reduced”.
For O=P(O)(O)C(Cl)(Cl)P(=O)(O)O [clodronate], the bone loss (macrophages) is given as “did not result in bone loss”.
